Assay results from the NIST ThermoML archive (doi:10.1021/je100148h).
“And” between values parts separate entries of the source, which are not always exact repeats. Identical values can stand only once. Numbers after ± are expanded uncertainties.

Conditions: Burnett expansion method

## [Ar] [argon]
318.75 K, 217.45 kPa, Gas
  mass density: 3.2819 ± 0.0091 kg/m3 and 3.2809 ± 0.0091 kg/m3
318.75 K, 299.59 kPa, Gas
  mass density: 4.5227 ± 0.0091 kg/m3 and 4.5217 ± 0.0091 kg/m3
318.75 K, 412.69 kPa, Gas
  mass density: 6.2318 ± 0.0091 kg/m3 and 6.2327 ± 0.0091 kg/m3
318.75 K, 568.39 kPa, Gas
  mass density: 8.5885 ± 0.0091 kg/m3 and 8.5891 ± 0.0091 kg/m3
318.75 K, 782.65 kPa, Gas
  mass density: 11.8364 ± 0.0091 kg/m3 and 11.8363 ± 0.0091 kg/m3
318.75 K, 1077.3 kPa, Gas
  mass density: 16.3128 ± 0.0091 kg/m3 and 16.3112 ± 0.0091 kg/m3
318.75 K, 2800.7 kPa, Gas
  mass density: 42.6996 ± 0.0093 kg/m3 and 42.685 ± 0.0093 kg/m3
318.75 K, 3845.5 kPa, Gas
  mass density: 58.8449 ± 0.0093 kg/m3 and 58.8199 ± 0.0093 kg/m3
318.75 K, 5275.1 kPa, Gas
  mass density: 81.0918 ± 0.0094 kg/m3 and 81.0507 ± 0.0094 kg/m3
318.75 K, 7231.5 kPa, Gas
  mass density: 111.747 ± 0.0094 kg/m3 and 111.681 ± 0.0094 kg/m3
318.76 K, 157.82 kPa, Gas
  mass density: 2.3805 ± 0.0091 kg/m3 and 2.3815 ± 0.0091 kg/m3
318.76 K, 1482.3 kPa, Gas
  mass density: 22.4815 ± 0.0092 kg/m3 and 22.4774 ± 0.0092 kg/m3
318.76 K, 2038.2 kPa, Gas
  mass density: 30.9829 ± 0.0092 kg/m3 and 30.9748 ± 0.0092 kg/m3

## O=C=O [carbon dioxide]
343.13 K, 214.49 kPa, Fluid (supercritical or subcritical phases)
  mass density: 3.3311 ± 0.0094 kg/m3 and 3.3345 ± 0.0094 kg/m3
343.13 K, 295.01 kPa, Fluid (supercritical or subcritical phases)
  mass density: 4.5929 ± 0.0094 kg/m3 and 4.5951 ± 0.0094 kg/m3
343.13 K, 405.34 kPa, Fluid (supercritical or subcritical phases)
  mass density: 6.3329 ± 0.0095 kg/m3 and 6.3325 ± 0.0095 kg/m3
343.13 K, 556.21 kPa, Fluid (supercritical or subcritical phases)
  mass density: 8.7319 ± 0.0097 kg/m3 and 8.7265 ± 0.0098 kg/m3
343.13 K, 761.77 kPa, Fluid (supercritical or subcritical phases)
  mass density: 12.0399 ± 0.0096 kg/m3 and 12.0258 ± 0.0096 kg/m3
343.13 K, 1040.8 kPa, Fluid (supercritical or subcritical phases)
  mass density: 16.6004 ± 0.0099 kg/m3 and 16.5719 ± 0.0099 kg/m3
343.13 K, 1417 kPa, Fluid (supercritical or subcritical phases)
  mass density: 22.8886 ± 0.01 kg/m3 and 22.8367 ± 0.01 kg/m3
343.13 K, 1919.8 kPa, Fluid (supercritical or subcritical phases)
  mass density: 31.5581 ± 0.01 kg/m3 and 31.4693 ± 0.01 kg/m3
343.13 K, 2584.2 kPa, Fluid (supercritical or subcritical phases)
  mass density: 43.5107 ± 0.011 kg/m3 and 43.3646 ± 0.011 kg/m3
343.13 K, 3447.3 kPa, Fluid (supercritical or subcritical phases)
  mass density: 59.9881 ± 0.012 kg/m3 and 59.7539 ± 0.012 kg/m3
343.13 K, 4543 kPa, Fluid (supercritical or subcritical phases)
  mass density: 82.704 ± 0.014 kg/m3 and 82.3364 ± 0.014 kg/m3
343.13 K, 5888.2 kPa, Fluid (supercritical or subcritical phases)
  mass density: 114.017 ± 0.03 kg/m3 and 113.448 ± 0.033 kg/m3
343.13 K, 7469.2 kPa, Fluid (supercritical or subcritical phases)
  mass density: 157.178 ± 0.017 kg/m3 and 156.31 ± 0.016 kg/m3
